According to patent US20050277586A1, “Peptide chemically modified with polyethylene glycol” (priority 2002, published 2005):

Key:
[1] = test system: Vero cell, T24 cell, A549 cell; test: Nucleic acid-introducing ability, luciferase-expressing plasmid (procedure of Example 9); assay type: cell-based; settings: for Nucleic acid-introducing ability: luciferase plasmid 1 μg/mL, highest count of peptide 1.25, 2.5 or 5 μM, cell line not stated
Excerpt: A cell line established from monkey kidney (Vero cell) and a human bladder cancer cell (T24 cell) purchased from American Type Culture Collection (ATCC) and human lung cancer cell (A549 cell) purchased from Dainippon Pharmaceutical were inoculated on a 24 well culture plate (manufactured by NALGEN NUNC) at 1×10^5 cells/well. Vero cell and A549 cell were cultivated in DMEM (manufactured by Life Technologies Oriental) supplemented with 10% fetal bovine serum (hereinafter referred to as FBS, manufactured by NICHIREI), and T24 cell was cultivated in McCoy's 5a (manufactured by Life Technologies Oriental) supplemented with 10% FBS in 5% CO2 atmosphere at 37° C. for 24 hours. After removing the medium, opti-MEM (manufactured by Life Technologies Oriental) prepared to have the concentration of the luciferase-expressing plasmid prepared in Example 7 of 1 μg/mL and the concentration of the peptide prepared in Example 1 of 1.25, 2.5, or 5 μM was added, and the cells were cultivated for 5 hours. Next, in the case of Vero cell and A549 cell, the culture medium was replaced with DMEM supplemented with 10% FBS, and in the case of T24 cell, the medium was replaced with McCoy's 5a supplemented with 10% FBS, and cultivation was continued in 5% CO2 atmosphere and at 37° C. for another 24 hours. The luciferase activity expressed in the cell was then measured by the method instructed in luciferase assay system (manufactured by Promega). To be more specific, the cells were washed with phosphate-buffered saline (hereinafter referred to as PBS, manufactured by SIGMA), and the cells were lyzed with Passive Lysis Buffer attached to the kit.
20 μL of this cell lysate and 100 μL of the Luciferase Assay Reagent II attached to the kit was added to a fluorescence-measuring plate (Microlite™ 1 plate, manufactured by Dynatech), and after mixing, fluorescence was measured for 1 second by using a multilabel counter (ARVO™ SY1420 MULTILABEL COUNTER, manufactured by Wallac Beltold.
Concentration of the protein in the cell lysate was measured by mixing 8 μL of the cell lysate and 200 μL of the protein assay solution (manufactured by Biorad) with 792 μL of ultrapure water in a disposable cuvette (UV fluorescent cuvette A204X, manufactured by Funakoshi), allowing the mixture to stand for 5 minutes at room temperature, and measuring the absorption at 595 nm with a spectrophotometer (DU640, manufactured by Beckman). Bovine serum albumin (BSA) was used for the standard protein. By using the thus obtained results, count per 1 second per 1 mg of protein of the cell lysate was calculated to thereby use the count as the luciferase activity, and the highest count in the three conditions of different peptide concentration was designated the gene-introducing ability of the peptide.

[2] = Measurement of turbidity in BSA (absorbance at 600 nm); assay type: physicochemical; settings: 1% BSA, peptide 50 μM
Experimental: The solutions were evaluated for their absorbance at a wavelength of 600 nm by using a spectrophotometer (DU640, manufactured by Beckman).

[3] = biological target: phosphatidyl serine (binding of human Factor VIII); test: Affinity for phosphatidyl serine (EIA, inhibition of human Factor VIII binding); settings: for IC50: in the presence of 5% BSA, human Factor VIII 1 μg/mL
Experimental: The specific affinity of the peptide for phosphatidyl serine was evaluated by measuring activity of the peptide for inhibiting the binding of the human Factor VIII to phosphatidyl serine by using human Factor VIII which is known to bind to phosphatidyl serine but not to phosphatidyl choline in the presence of serum albumin. To be more specific, 100 μL of ethanol solution containing 10 μg/mL of phospholipids at a phosphatidyl serine (manufactured by SIGMA): phosphatidyl choline (manufactured by SIGMA) ratio of 3:7 was added to the wells of a 96 well plate (Immulon I, manufactured by Dynatech), and exsiccated by using a centrifugal evaporator (EC-95C, manufactured by Sakuma Seisakusho) at 40° C. for 40 minutes. 200 μL each of TBS (10 mM Tris-HCl (pH 7.4) containing 1% bovine serum albumin (BSA Fraction V, hereinafter referred to as BSA, manufactured by Seikagaku Corporation) and 0.9% (W/V) NaCl solution were added to each well, and the wells were blocked by allowing the plate to stand at 37° C. for 2.5 hours. After washing the plate with water, 100 μL of TBS solution supplemented with 5% BSA mixed with human Factor VIII (manufactured by American Diagnostica) at a final concentration 1 μg/mL and the peptide of predetermined dose prepared in Example 1 was added to each well, and the reaction was allowed to take place at 4° C. for 24 hours.
After the completion of the reaction, the human Factor VIII that became bound to the phosphatidyl serine was measured by enzyme immunoassay (EIA) in accordance with the general procedure described in a book (“Enzyme Immunoassay (3rd ed.)”, Eiji Ishikawa et al., Igaku-Shoin, 1987). To be more specific, the measurement was conducted by using anti-human Factor VIII mouse monoclonal antibody (ESH8, manufactured by American Diagnostica) for the primary antibody, horseradish peroxidase-labeled anti-mouse IgG antibody (P0260, manufactured by Daco) for the secondary antibody, and tetramethylbenzidine for the chromogenic substrate, and measuring the absorption at a wavelength of 450 nm by using a reference wavelength of 630 nm on a spectrophotometer (NJ-2100, manufactured by Intermed).
Intensity of the affinity of the peptide for the phosphatidyl serine was evaluated by using the value obtained by subtracting the absorption of the well having no human Factor VIII added thereto from the absorption of the well having only the human Factor VIII added thereto as the control value (100%), and designating the peptide concentration at which the value 0.5 was obtained when the value obtained by subtracting the absorption of the well having only the peptide added thereto from the absorption of the well having a mixture of the human Factor VIII and the peptide added thereto were divided by the control value as the IC50 value, and evaluating the intensity to be ++ when the IC50 value was up to 1 μM, and + when the intensity was more than 1 μM but not more than 10 μM. It is to be noted that the specific affinity was evaluated to be none when the intensity was 10 μM or more.

Row | OD 600 [2] | IC50 [3] | Substance | Nucleic acid-introducing ability [1] | Ability of introducing the nucleic acid into a cell ([1]; procedure of Example 9) | Fluorescent count per 1 mg of protein per 1 second ([1]; procedure of Example 9) | Affinity for phosphatidyl serine ([3]; procedure of Example 20)
1 | < 0.01 | < 1000 nM | TRYLRIRPRSWVRQIALRLRYLRIRPRSWVRQIALRS [SEQ ID NO: 15] | 2+ (100,000 to less than 1,000,000) |  |  | 
2 | < 0.01 | < 1000 nM | TRFLRIHPRSWVHQIALRLRFLRIHPRSWVHQIALRS [SEQ ID NO: 5] | 2+ (100,000 to less than 1,000,000) |  |  | 
3 | < 0.01 | < 1000 nM | TRSLRIHPRLWVHQIALRLRSLRIHPRLWVHQIALRS [SEQ ID NO: 17] | 2+ (100,000 to less than 1,000,000) |  |  | 
4 | < 0.01 | < 1000 nM | TRYLRIHPRSWVHQIRLRLRYLRIHPRSWVHQIRLRS [SEQ ID NO: 3] | 2+ (100,000 to less than 1,000,000) |  |  | 
5 | < 0.01 | < 1000 nM | TIHPRSWVHQIALRLRYLRIHPRSWVHQIAS [SEQ ID NO: 23] | 2+ (100,000 to less than 1,000,000) | had the ability of introducing the nucleic acid into a cell |  | 
6 | < 0.01 | < 1000 nM | TRYLRIHPRSWVRQIALRLRYLRIHPRSWVRQIALRS [SEQ ID NO: 2] | 3+ (1,000,000 to less than 10,000,000) |  |  | 
7 | < 0.01 | 1000 to 10000 nM | TRYLRIHPRLWVHQIALRLRYLRIHPRLWVHQIALRS [SEQ ID NO: 11] | 3+ (1,000,000 to less than 10,000,000) |  |  | 

Continued, substance first:

Row | Substance | OD 600 [2] | IC50 [3] | Nucleic acid-introducing ability [1] | Ability of introducing the nucleic acid into a cell ([1]; procedure of Example 9) | Fluorescent count per 1 mg of protein per 1 second ([1]; procedure of Example 9) | Affinity for phosphatidyl serine ([3]; procedure of Example 20)
8 | SEQ ID NO: 20: SEQ ID NO: 1 with three locations in the 18 amino acid sequence substituted (TRYLRLHPRSWVHQLALRTRYLRLHPRSWVHQLALRS) |  |  | 4+ (10,000,000 to less than 100,000,000) |  |  | 
9 | TRYLRIHPRSWVHQIALKLKYLRIHPRSWVHQIALRS [SEQ ID NO: 7] | < 0.01 | 1000 to 10000 nM | 2+ (100,000 to less than 1,000,000) |  |  | 
10 | SEQ ID NO: 22: SEQ ID NO: 1 with three locations in the 18 amino acid sequence substituted (TRRLRIHPRRWVHRIALRLRRLRIHPRRWVHRIALRS) |  |  | 3+ (1,000,000 to less than 10,000,000) |  |  | 
11 | SEQ ID NO: 12: SEQ ID NO: 1 with one or two locations in the 18 amino acid sequence substituted (TRYLRIHPRSWVHQIALSLRYLRIHPRSWVHQIALSS) |  |  | 2+ (100,000 to less than 1,000,000) |  |  | 
12 | SEQ ID NO: 26: SEQ ID NO: 1 with amino acid substitution so that it lacks the four sided 18 amino acid sequence (TRYLRIHPRSWVLQIALRLRYLRIHPRSWVLQIALRS) [reference compound] |  |  |  | no nucleic acid-introducing ability was found | less than 10,000 cps/mg protein | 
13 | SEQ ID NO: 21: SEQ ID NO: 1 with three locations in the 18 amino acid sequence substituted (TKYLKIHPKSWVHQIALRLKYLKIHPKSWVHQIALRS) |  |  | 2+ (100,000 to less than 1,000,000) |  |  | 
14 | SEQ ID NO: 13: SEQ ID NO: 1 with one or two locations in the 18 amino acid sequence substituted (TRYLRIHPRSLVHQIALRLRYLRIHPRSLVHQIALRS) |  |  | 3+ (1,000,000 to less than 10,000,000) |  |  | 
15 | SEQ ID NO: 14: SEQ ID NO: 1 with one or two locations in the 18 amino acid sequence substituted (TRYLRIHPRSWSHQIALRLRYLRIHPRSWSHQIALRS) |  |  | 3+ (1,000,000 to less than 10,000,000) |  |  | 
16 | TRYLRIHPKSWVHQIALRLRYLKIHPRSWVHQIALRS [SEQ ID NO: 8] | < 0.01 | 1000 to 10000 nM | 3+ (1,000,000 to less than 10,000,000) |  |  | 
17 | TRYLRLHPRSWLHQLALRLRYLRLHPRSWLHQLALRS [SEQ ID NO: 19] | < 0.01 | < 1000 nM | 4+ (10,000,000 to less than 100,000,000) |  |  | 
18 | TRYLRIHPRSWVHNIALRLRYLRIHPRSWVHNIALRS [SEQ ID NO: 6] | < 0.01 | < 1000 nM | 2+ (100,000 to less than 1,000,000) |  |  | 
19 | Polylysine [reference compound] | ≥ 1 |  |  |  |  | no affinity for phosphatidyl serine
20 | SEQ ID NO: 24: deletion mutant of the peptide of SEQ ID NO: 4 (TLRYLRIHPRSWLHQIALRS) |  |  | 1+ (10,000 to less than 100,000) | had the ability of introducing the nucleic acid into a cell |  | 
21 | SEQ ID NO: 18: SEQ ID NO: 1 with one or two locations in the 18 amino acid sequence substituted (TRYLRIHPRSWLHQIALRTRYLRIHPRSWLHQIALRS) |  |  | 4+ (10,000,000 to less than 100,000,000) |  |  | 
22 | TRSLRIHPRSWVHQIALRLRSLRIHPRSWVHQIALRS [SEQ ID NO: 10] | < 0.01 | 1000 to 10000 nM | 3+ (1,000,000 to less than 10,000,000) |  |  | 
23 | SEQ ID NO: 9: SEQ ID NO: 1 with one or two locations in the 18 amino acid sequence substituted (TRYLRIHPRSWVHQIALRTRYLRIHPRSWVHQIALRS) |  |  | 3+ (1,000,000 to less than 10,000,000) |  |  | 
